The conditions of data set [1]: in water; cited from earlier work.
The conditions of data set [2]: silver benzoate combined with solvent DMAEMA; FIG. 1. An excerpt: FIG. 9 compares the resin compositions of FIG. 7 (A) with the color profiles of various resin compositions prepared with the silver benzoate/DMAEMA mixture added to the base resin before mixing with the catalyst resin to polymerize and cured by either light-curing or self-curing (B).

For `C=C(C)C(=O)OC` [methyl methacrylate (MMA), methyl methacrylate], the water solubility result in data set [1] is recorded as “about 1.6 g in 100 g of water”. With `O=C([O-])c1ccccc1.[Ag+]` [silver benzoate], in data set [2], the “change in color over time” value is recorded as “become darker over time”.
